One assay concerns the target T1, NAMPT (Homo sapiens, UniProt P43490).
T1 construct: His tag; host or cells: E. coli
As to the kind of experiment: Biochemical inhibition assay: NAMPT enzymatic reaction, NMN quantified by mass spectrometry. To be noted: read-out: Biochem IC50. A digest of the protocol:
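Inhibition of E. coli-expressed His-tagged human NAMPT, measured as NMN formation by mass spectrometry after a 30 min room-temperature reaction containing 1 μM NAM, 100 μM PRPP and 2.5 mM ATP.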

The test system of another assay is A2780 cells. As to the kind of experiment: In-vitro cell proliferation assay (SRB), A2780 cells. The format is cell-based. To be noted: Homo sapiens, A2780, 72 h, A2780 cells, 72 hours, read-out: A2780 IC50. A digest of the protocol: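 Growth inhibition was derived from background-corrected SRB absorbance (570 nm), measured on cells fixed in 6% TCA after three days of compound treatment under 5% CO2 at 37° C.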

The record followed here is patent US12336981B2, “Compounds and compositions for the inhibition of NAMPT” (Valo Health, Inc., priority 2010, dated 2025).

Read-outs that look alike come from different tables or passages of the source. Bounds are passed on as bounds.

T1 sequence (P43490 whole entry): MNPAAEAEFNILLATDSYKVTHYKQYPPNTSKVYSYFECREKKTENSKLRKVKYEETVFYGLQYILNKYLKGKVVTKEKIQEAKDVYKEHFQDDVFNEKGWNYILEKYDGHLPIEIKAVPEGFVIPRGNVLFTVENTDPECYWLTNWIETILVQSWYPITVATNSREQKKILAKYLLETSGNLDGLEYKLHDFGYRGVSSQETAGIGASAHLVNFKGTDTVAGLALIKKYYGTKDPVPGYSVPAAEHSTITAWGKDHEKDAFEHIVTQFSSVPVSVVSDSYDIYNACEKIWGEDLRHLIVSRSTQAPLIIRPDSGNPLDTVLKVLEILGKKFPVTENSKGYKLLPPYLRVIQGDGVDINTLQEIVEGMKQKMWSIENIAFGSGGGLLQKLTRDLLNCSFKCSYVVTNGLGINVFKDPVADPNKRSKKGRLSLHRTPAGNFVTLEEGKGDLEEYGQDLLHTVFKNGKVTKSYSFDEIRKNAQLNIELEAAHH

Usually IC50 stands for the concentration that gives 50% inhibition. For the molecule `O=C(NCc1ccc(S(=O)(=O)c2ccccc2)cc1)c1noc(-c2cccnc2)n1` [N-{[4-(benzenesulfonyl)phenyl]methyl}-5-(pyridin-3-yl)-1,2,4-oxadiazole-3-carboxamide], the figures for the IC50 at NAMPT (NAMPT enzymatic reaction) and with A2780 cells (SRB assay) were 312 nM and above 30000 nM, respectively.

As for `O=C(NCc1ccc(S(=O)(=O)c2ccccc2)cc1)c1cc(-c2cccnc2)[nH]n1` [N-{[4-(benzenesulfonyl)phenyl]methyl}-5-(pyridin-3-yl)-1H-pyrazole-3-carboxamide], the IC50 on NAMPT (NAMPT enzymatic reaction) worked out at 23 nM; with A2780 cells (SRB assay) it was 11800 nM.

With `O=C(NCc1ccc(S(=O)(=O)c2ccccc2)cc1)N1CCc2ncncc2C1` [N-{[4-(benzenesulfonyl)phenyl]methyl}-5H,6H,7H,8H-pyrido[4,3-d]pyrimidine-6-carboxamide], the IC50 on NAMPT (NAMPT enzymatic reaction) and in the assay with A2780 cells (SRB assay) was above 2000 nM throughout.

`O=C(NCc1ccc(S(=O)(=O)c2ccccc2)cc1)c1ccc2nncn2c1` [N-{[4-(benzenesulfonyl)phenyl]methyl}-[1,2,4]triazolo[4,3-a]pyridine-6-carboxamide]: the IC50 at NAMPT (NAMPT enzymatic reaction) is 301 nM; with A2780 cells (SRB assay), above 10000 nM.

As to `O=C(NCc1ccc(S(=O)(=O)c2ccccc2)cc1)c1nc2ccncc2s1` [N-{[4-(benzenesulfonyl)phenyl]methyl}-[1,3]thiazolo[5,4-c]pyridine-2-carboxamide], the IC50 was 220 nM at NAMPT (NAMPT enzymatic assay) and above 10000 nM in the assay on A2780 cells (SRB).

Consider `O=C(NCc1ccc(S(=O)(=O)c2ccccc2)cc1)c1cn2ccncc2n1` [N-{[4-(benzenesulfonyl)phenyl]methyl}imidazo[1,2-a]pyrazine-2-carboxamide], for which the figures for the IC50 at NAMPT (NAMPT enzymatic reaction) and with A2780 cells (SRB assay) were 1490 nM and above 30000 nM, respectively.

On to `O=C(NCc1ccc(S(=O)(=O)c2ccccc2)cc1)c1cnc2nccn2c1` [N-{[4-(benzenesulfonyl)phenyl]methyl}imidazo[1,2-a]pyrimidine-6-carboxamide], for which the IC50 stood at 2 nM at NAMPT (NAMPT enzymatic assay) and 57 nM in the assay with A2780 cells (SRB).

For the molecule `O=C(NCc1ccc(S(=O)(=O)c2ccccc2)cc1)c1ccc2cnccc2c1` [N-{[4-(benzenesulfonyl)phenyl]methyl}isoquinoline-6-carboxamide], the IC50 at NAMPT (NAMPT enzymatic reaction) is 16100 nM; with A2780 cells (SRB assay) it was 21300 nM.

As to `O=C(NCc1ccc(S(=O)(=O)c2ccccc2)cc1)c1ccc2ccncc2c1` [N-{[4-(benzenesulfonyl)phenyl]methyl}isoquinoline-7-carboxamide], the IC50 stood at 219 nM on NAMPT (NAMPT enzymatic reaction) and 24000 nM with A2780 cells (SRB assay).

Regarding `O=C(NCc1ccc(S(=O)(=O)c2ccccc2)cc1)c1ccc2ncncc2c1` [N-{[4-(benzenesulfonyl)phenyl]methyl}quinazoline-6-carboxamide], the results for the IC50 on NAMPT (NAMPT enzymatic reaction) and with A2780 cells (SRB assay) were 16100 nM and 21300 nM, respectively.

In the case of `O=C(NCc1ccc(S(=O)(=O)c2ccccc2)cc1)c1ccc2ncccc2c1` [N-{[4-(benzenesulfonyl)phenyl]methyl}quinoline-6-carboxamide], the IC50 on NAMPT (NAMPT enzymatic assay) was 108 nM; in the assay on A2780 cells (SRB) it was above 10000 nM.

On to `O=C(NCc1ccc(S(=O)(=O)c2ccccc2)cc1)c1cc2nccnc2s1` [N-{[4-(benzenesulfonyl)phenyl]methyl}thieno[2,3-b]pyrazine-6-carboxamide], for which the IC50 is 52 nM on NAMPT (NAMPT enzymatic reaction) and above 30000 nM with A2780 cells (SRB assay).

As for `O=C(NCc1ccc(S(=O)(=O)C2CCCCC2)cc1)c1cc2cnccc2[nH]1` [N-{[4-(cyclohexanesulfonyl)phenyl]methyl}-1H-pyrrolo[3,2-c]pyridine-2-carboxamide], the IC50 on NAMPT (NAMPT enzymatic assay) came out at 5 nM; in the assay on A2780 cells (SRB), 17.6 nM.

For `Cc1nc(C)c(S(=O)(=O)c2ccc(CNC(=O)c3cnc4[nH]ncc4c3)cc2)s1` [N-{[4-(dimethyl-1,3-thiazole-5-sulfonyl)phenyl]methyl}-1H-pyrazolo[3,4-b]pyridine-5-carboxamide], the IC50 on NAMPT (NAMPT enzymatic assay) worked out at 38.6 nM; in the assay with A2780 cells (SRB), 16.4 nM.

For the molecule `Cc1nc(C)c(S(=O)(=O)c2ccc(CNC(=O)c3cc4ccncc4o3)cc2)s1` [N-{[4-(dimethyl-1,3-thiazole-5-sulfonyl)phenyl]methyl}furo[2,3-c]pyridine-2-carboxamide], the IC50 at NAMPT (NAMPT enzymatic assay) was 8.3 nM; with A2780 cells (SRB) it was 10.3 nM.

Consider `Cc1nc(C)c(S(=O)(=O)c2ccc(CNC(=O)c3ccc4nccn4c3)cc2)s1` [N-{[4-(dimethyl-1,3-thiazole-5-sulfonyl)phenyl]methyl}imidazo[1,2-a]pyridine-6-carboxamide], for which the values for the concentration for half-maximal inhibition (IC50) at NAMPT (NAMPT enzymatic assay) and in the assay with A2780 cells (SRB) were 9 nM and 3.7 nM, respectively.

With `Cc1nc(C)c(S(=O)(=O)c2ccc(CNC(=O)c3cnc4nccn4c3)cc2)s1` [N-{[4-(dimethyl-1,3-thiazole-5-sulfonyl)phenyl]methyl}imidazo[1,2-a]pyrimidine-6-carboxamide], the IC50 amounted to 3.7 nM at NAMPT (NAMPT enzymatic assay) and 49.5 nM with A2780 cells (SRB).

`Cc1nc(C)c(S(=O)(=O)c2ccc(CNC(=O)c3cc4ccncc4s3)cc2)s1` [N-{[4-(dimethyl-1,3-thiazole-5-sulfonyl)phenyl]methyl}thieno[2,3-c]pyridine-2-carboxamide]: the IC50 came out at 1.3 nM on NAMPT (NAMPT enzymatic assay) and 3 nM in the assay with A2780 cells (SRB).

As for `O=C(NCc1ccc(S(=O)(=O)c2ccco2)cc1)c1ccc2nccn2c1` [N-{[4-(furan-2-sulfonyl)phenyl]methyl}imidazo[1,2-a]pyridine-6-carboxamide], the figures for the IC50 at NAMPT (NAMPT enzymatic assay) and in the assay with A2780 cells (SRB) were 76.2 nM and 100 to 1000 nM, respectively.

Turning to `O=C(NCc1ccc(S(=O)(=O)c2cncc3ccccc23)cc1)c1cnc2[nH]ncc2c1` [N-{[4-(isoquinoline-4-sulfonyl)phenyl]methyl}-1H-pyrazolo[3,4-b]pyridine-5-carboxamide], the IC50 on NAMPT (NAMPT enzymatic assay) was determined as 3.7 nM; with A2780 cells (SRB) it was 2.5 nM.

Consider `O=C(NCc1ccc(S(=O)(=O)c2cncc3ccccc23)cc1)c1cc2cnccc2[nH]1` [N-{[4-(isoquinoline-4-sulfonyl)phenyl]methyl}-1H-pyrrolo[3,2-c]pyridine-2-carboxamide], for which the results for the IC50 on NAMPT (NAMPT enzymatic assay) and in the assay on A2780 cells (SRB) were 10.9 nM and 1.6 nM, respectively.

For `O=C(NCc1ccc(S(=O)(=O)c2cncc3ccccc23)cc1)c1cc2ccncc2o1` [N-{[4-(isoquinoline-4-sulfonyl)phenyl]methyl}furo[2,3-c]pyridine-2-carboxamide], the IC50 on NAMPT (NAMPT enzymatic assay) was determined as 19 nM; in the assay with A2780 cells (SRB), 3 nM.

With `O=C(NCc1ccc(S(=O)(=O)c2cncc3ccccc23)cc1)c1ccc2nccn2c1` [N-{[4-(isoquinoline-4-sulfonyl)phenyl]methyl}imidazo[1,2-a]pyridine-6-carboxamide], the IC50 turned out to be 22.4 nM at NAMPT (NAMPT enzymatic assay) and 4.1 nM in the assay with A2780 cells (SRB).

With `O=C(NCc1ccc(S(=O)(=O)c2cncc3ccccc23)cc1)c1cc2ccncc2s1` [N-{[4-(isoquinoline-4-sulfonyl)phenyl]methyl}thieno[2,3-c]pyridine-2-carboxamide], the IC50 turned out to be 6.7 nM on NAMPT (NAMPT enzymatic assay), 3 nM on NAMPT (NAMPT enzymatic reaction), 0.7 nM in the assay with A2780 cells (SRB assay) and 0.8 nM in the assay on A2780 cells (SRB).

For `O=C(NCc1ccc(S(=O)(=O)c2cccc3ccccc23)cc1)c1cnc2[nH]ncc2c1` [N-{[4-(naphthalene-1-sulfonyl)phenyl]methyl}-1H-pyrazolo[3,4-b]pyridine-5-carboxamide], the results for the IC50 on NAMPT (NAMPT enzymatic assay) and in the assay with A2780 cells (SRB) were 9.1 nM and 3.68 nM, respectively.

In the case of `O=C(NCc1ccc(S(=O)(=O)c2cccc3ccccc23)cc1)c1cc2ccncc2o1` [N-{[4-(naphthalene-1-sulfonyl)phenyl]methyl}furo[2,3-c]pyridine-2-carboxamide], the IC50 turned out to be 4.9 nM at NAMPT (NAMPT enzymatic assay) and 3.1 nM in the assay on A2780 cells (SRB).
